Results from ChEMBL document CHEMBL1133439, “Synthesis and biological evaluation of enantiopure thionitrites: the solid-phase synthesis and nitrosation of D-glutathione as a molecular probe” (Bioorg Med Chem Lett, 2000).

What was measured:
Rattus norvegicus [1] = species: Rattus norvegicus; test: Effective concentration required for relaxation of rat aortic rings; type: functional; details: Aorta
Rattus norvegicus [2] = species: Rattus norvegicus; test: Percentage Inhibition of relaxation of phenylephrine-induced tone in rat aortic smooth muscle at ~10000 nM; type: functional, Aorta
Rattus norvegicus [3] = species: Rattus norvegicus; test: Percentage Inhibition of relaxation of phenylephrine-induced tone in rat aortic smooth muscle at ~500 nM; type: functional, Aorta
Rattus norvegicus [4] = species: Rattus norvegicus; test: Percentage Inhibition of relaxation of phenylephrine-induced tone in rat aortic smooth muscle at ~100 nM; type: functional, Aorta
Rattus norvegicus [5] = species: Rattus norvegicus; test: Percentage Inhibition of relaxation of phenylephrine-induced tone in rat aortic smooth muscle at ~10 nM; type: functional, Aorta
Rattus norvegicus [6] = species: Rattus norvegicus; test: Percentage Inhibition of relaxation of phenylephrine-induced tone in rat aortic smooth muscle at ~1000 nM; type: functional, Aorta
Rattus norvegicus [7] = species: Rattus norvegicus; test: Percentage Inhibition of relaxation of phenylephrine-induced tone in rat aortic smooth muscle at ~600 nM; type: functional, Aorta
Rattus norvegicus [8] = species: Rattus norvegicus; test: Percentage Inhibition of relaxation of phenylephrine-induced tone in rat aortic smooth muscle at ~5000 nM; type: functional, Aorta

| EC50 (Rattus norvegicus [1]) [nM] | SMILES | Inhibition (Rattus norvegicus [4]) [%] | Inhibition (Rattus norvegicus [6]) [%] | also measured |
| --- | --- | --- | --- | --- |
| 492 | CC(=O)N[C@@H](C(=O)O)C(C)(C)SN=O | – | – | – |
| 108 | N[C@@H](CCC(=O)N[C@@H](CSN=O)C(=O)NCC(=O)O)C(=O)O [S-NITROSOGLUTATHIONE] | 50 | 90 | Inhibition (Rattus norvegicus [2]): 100%; Inhibition (Rattus norvegicus [3]): 80%; Inhibition (Rattus norvegicus [5]): 20% |
| 290 | N[C@H](CCC(=O)N[C@H](CSN=O)C(=O)NCC(=O)O)C(=O)O | 25 | 80 | Inhibition (Rattus norvegicus [7]): 50%; Inhibition (Rattus norvegicus [8]): 100% |
| 476 | CC(=O)N[C@H](C(=O)O)C(C)(C)SN=O | – | – | – |
| 2 | N[C@@H](CSN=O)C(=O)O | – | – | – |
| 2.1 | N[C@H](CSN=O)C(=O)O | – | – | – |
